How the values were obtained:
[1] = tested on: Inflammatory Metabolites (PGE2, LTB4) and Inflammatory Metabolite Marker (5-HETE); assay: Inflammatory Metabolites and Inflammatory Metabolite Markers in the aggregate, PMA/A23187-stimulated neutrophils, LC-MS/MS; format: cell-based, human; details: for net decrease in cellular concentration of Inflammatory Metabolites and Inflammatory Metabolite Markers vs control: human neutrophils pre-treated 24 h, then PMA/A23187
Description: (§1) Ingredients were tested to assess the ability to promote Pro-Resolution Pathway Stimulators in human neutrophils. The following Inflammatory Metabolites were measured:
(§2) PGE2 and LTB4. The Inflammatory Metabolite Marker, 5-HETE, was measured. Also measured were the Pro-Resolving Lipid Mediator Markers 15-HETE, 12-HETE, 14-HDOHE, 18-HEPE, and 17-HDOHE. PGE2, LTB4, and 5-HETE are indicators of inflammation. Increases in cellular secretion of PGE2, LTB4, or 5-HETE are seen in response to inflammation precipitating conditions. Active ingredients that cause a reduction in cellular concentration of PGE2, LTB4, or 5-HETE are anti-inflammatory in nature. Cellular secretion of Pro-Resolving Lipid Mediators occurs in the inflammation resolution phase. Active ingredients that stimulate cellular secretion of Pro-Resolving Lipid Mediators (as measured by measuring Pro-Resolving Lipid Mediator Markers) help to promote resolution of inflammation.
(§3) Then, the inflammatory response was initiated by adding an inflammation precipitating ingredient, in particular PMA/[…] which is a mixture of 5-(methylamino)-2-({(2R,3R,6S,8S,9R,11R)-3,9,11-trimethyl-8-[(1S)-1-methyl-2-oxo-2-(1H-pyrrol-2-yl)ethyl]-1,7-dioxaspiro[5.5]undec-2-yl}methyl)-1,3-benzoxazole-4-carboxylic acid and PMA (phorbol myristate acetate), at a concentration of 0.05 μm and 1 μm respectively to each well. After one hour the supernatants were collected and stored at −80° C. until assayed.
(§4) Cell supernatants were assayed for Inflammatory Metabolites (PGE2, LBT4), Inflammatory Metabolite Markers (5-HETE), and Pro-Resolving Lipid Mediator Markers 15-HETE, 12-HETE, 14-HDOHE, 18-HEPE, and 17-HDOHE. More specifically, analysis was performed by extraction using an Oasis HLB 96-well plate (Waters) according to manufacturer's directions.
(§5) Suitable Pro-Resolving Activators are ingredients that show an increase in cellular concentration of Pro-Resolving Lipid Mediator Markers 15-HETE, 12-HETE, 14-HDOHE, 18-HEPE, and 17-HDOHE alone or in combination, when cells exposed to an inflammation precipitating condition either before or after exposure to the active.

[2] = tested on: Pro-Resolving Lipid Mediator Markers 15-HETE, 12-HETE, 14-HDOHE, 18-HEPE, and 17-HDOHE; assay: Pro-Resolving Lipid Mediator Markers in the aggregate, PMA/A23187-stimulated neutrophils, LC-MS/MS; format: cell-based, human
Description: as §1, §2, §3, §4, §5

Oc1ccc(C=Cc2cc(O)cc(O)c2)cc1 [resveratrol]
decrease in Inflammatory Metabolites and Markers in the aggregate vs control ([1]; 0.1 ug/ml): 45% | decrease in Inflammatory Metabolites and Markers in the aggregate vs control ([1]; 1 ug/ml): 59% | decrease in Inflammatory Metabolites and Markers in the aggregate vs control ([1]; 10 ug/ml): 106% | % change of Pro-Resolving Lipid Mediator Markers in the aggregate compared to control ([2]; 0.1 ug/ml): −27% | % change of Pro-Resolving Lipid Mediator Markers in the aggregate compared to control ([2]; 1 ug/ml): −16% | % change of Pro-Resolving Lipid Mediator Markers in the aggregate compared to control ([2]; 10 ug/ml): −10%

O=C(O)c1ccccc1O [salicylic acid]
net decrease in cellular concentration of Inflammatory Metabolites and Inflammatory Metabolite Markers vs control ([1]; 0.33 μg/ml, aggregate of PGE2, LTB4, 5-HETE): 29% | net decrease in cellular concentration of Inflammatory Metabolites and Inflammatory Metabolite Markers vs control ([1]; 3.3 μg/ml, aggregate): 58% | net decrease in cellular concentration of Inflammatory Metabolites and Inflammatory Metabolite Markers vs control ([1]; 33 μg/ml, aggregate): 46% | change in cellular concentration of Pro-Resolving Lipid Mediators vs control ([2]; 0.33 ug/ml): small increase | change in cellular concentration of all Pro-Resolving Lipid Mediator Markers in the aggregate vs control ([2]; 3.3 μg/ml): decreased | change in cellular concentration of all Pro-Resolving Lipid Mediator Markers in the aggregate vs control ([2]; 33 μg/ml): decreased

resveratrol salicylate
decrease in Inflammatory Metabolites and Inflammation Metabolite Markers in the aggregate vs control ([1]; 0.43 ug/ml): 87% | decrease in Inflammatory Metabolites and Inflammation Metabolite Markers in the aggregate vs control ([1]; 4.3 ug/ml): 163% | decrease in Inflammatory Metabolites and Inflammation Metabolite Markers in the aggregate vs control ([1]; 43 ug/ml): 257% | increase in cellular concentration of Pro-Resolving Lipid Mediator Markers in the aggregate ([2]; 0.43 ug/ml): not being as effective | increase in cellular concentration of Pro-Resolving Lipid Mediator Markers in the aggregate ([2]; 4.3 ug/ml): 4% | increase in cellular concentration of Pro-Resolving Lipid Mediator Markers in the aggregate ([2]; 43 ug/ml): 37%

From patent publication US10010492B2, “Methods and compositions for treating skin to resolve inflammation and screening for actives that stimulate pro-resolution pathways” (ELC Management LLC, priority 2015, dated 2018)
